Measured values from PubChem BioAssay (NCI).
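Cells were grown in 96-well plates and exposed to each compound for 48 hours at five concentrations; endpoints were interpolated linearly between bracketing concentrations, or set to the highest concentration if not reached. GI50: concentration for 50% inhibition of growth. Definition used: TGI = concentration required for complete inhibition of growth.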

How the values were obtained:
Assay in all cases: DTP human tumour cell line panel, 48 h
HOP-62 NSCLC = test system: HOP-62 NSCLC
M14 melanoma = test system: M14 melanoma
SK-MEL-2 melanoma = test system: SK-MEL-2 melanoma
SN12C renal = test system: SN12C renal
SNB-75 CNS = test system: SNB-75 CNS
U251 CNS = test system: U251 CNS
MDA-MB-231 breast = test system: MDA-MB-231 breast
MDA-MB-435 = test system: MDA-MB-435
PC-3 prostate = test system: PC-3 prostate
UACC-257 melanoma = test system: UACC-257 melanoma

## Brc1ccc(C2SCc3nc4ccccc4n32)cc1 (configuration not stated)
HOP-62 NSCLC
  TGI: 22.4 µM
M14 melanoma
  TGI: 25.5 µM
SK-MEL-2 melanoma
  TGI: 30.4 µM
SN12C renal
  TGI: 27.7 µM
SNB-75 CNS
  TGI: 0.745 µM
U251 CNS
  TGI: 25.2 µM

## C#CC(=O)OCC#CCOC(=O)C#C
HOP-62 NSCLC
  TGI: 46.1 µM
M14 melanoma
  TGI: 49.5 µM
MDA-MB-231 breast
  TGI: 75.6 µM
MDA-MB-435
  TGI: > 100 µM
PC-3 prostate
  TGI: > 100 µM
SK-MEL-2 melanoma
  TGI: 40.1 µM
SN12C renal
  TGI: 82.3 µM
U251 CNS
  TGI: 35.6 µM
UACC-257 melanoma
  TGI: > 100 µM

## COc1ccc(/C(=N/O)c2cc(OC)c(OC)c(OC)c2)c(OC)c1N
HOP-62 NSCLC
  GI50: 6.55 µM
  TGI: > 100 µM
M14 melanoma
  GI50: 2.7 µM
  TGI: > 100 µM
MDA-MB-231 breast
  GI50: 5.36 µM
  TGI: > 100 µM
PC-3 prostate
  GI50: 3.97 µM
  TGI: > 100 µM
SK-MEL-2 melanoma
  GI50: > 100 µM
  TGI: > 100 µM
SN12C renal
  GI50: 15.4 µM
  TGI: > 100 µM
SNB-75 CNS
  GI50: 2.21 µM
  TGI: > 100 µM
U251 CNS
  GI50: 5.65 µM
  TGI: > 100 µM

## C[n+]1c(/C=C/c2ccc(/C=N/NC(=O)c3ccc(C(=O)N/N=C/c4ccc(/C=C/c5cn6ccccc6[n+]5C)cc4)cc3)cc2)cn2ccccc21
HOP-62 NSCLC
  TGI: > 100 µM
M14 melanoma
  TGI: > 100 µM
MDA-MB-231 breast
  TGI: > 100 µM
MDA-MB-435
  TGI: > 100 µM
PC-3 prostate
  TGI: > 100 µM
SN12C renal
  TGI: > 100 µM
SNB-75 CNS
  TGI: > 100 µM
U251 CNS
  TGI: > 100 µM
UACC-257 melanoma
  TGI: > 100 µM

## O=S(=O)(NCCO)c1cc[c]([Sb](=[O])([OH])[OH])cc1
HOP-62 NSCLC
  GI50: > 100 µM
  TGI: > 100 µM
M14 melanoma
  GI50: > 100 µM
  TGI: > 100 µM
MDA-MB-231 breast
  GI50: > 100 µM
  TGI: > 100 µM
MDA-MB-435
  GI50: > 100 µM
  TGI: > 100 µM
PC-3 prostate
  GI50: > 100 µM
  TGI: > 100 µM
SK-MEL-2 melanoma
  GI50: > 100 µM
  TGI: > 100 µM
SN12C renal
  GI50: > 100 µM
  TGI: > 100 µM
U251 CNS
  GI50: > 100 µM
  TGI: > 100 µM
UACC-257 melanoma
  GI50: > 100 µM
  TGI: > 100 µM

## CC(C)(C)N=CN(C=C(c1ccccc1)c1ccccc1)C1CCCCC1
HOP-62 NSCLC
  TGI: > 100 µM
SK-MEL-2 melanoma
  TGI: > 100 µM
SN12C renal
  TGI: > 100 µM
SNB-75 CNS
  TGI: > 100 µM
U251 CNS
  TGI: > 100 µM
UACC-257 melanoma
  TGI: > 100 µM

## CC(=O)c1cccc(NC(=O)c2ccc(NC3=C(Cl)C(=O)N(Cc4ccccc4)C3=O)cc2)c1
M14 melanoma
  GI50: 17.1 µM
  TGI: 33.3 µM
MDA-MB-231 breast
  GI50: 15 µM
  TGI: 38.3 µM
MDA-MB-435
  GI50: 11.8 µM
  TGI: 30.1 µM
PC-3 prostate
  GI50: 15.9 µM
  TGI: 36.4 µM
SK-MEL-2 melanoma
  GI50: 2.38 µM
  TGI: 11.5 µM
SN12C renal
  GI50: 1.92 µM
  TGI: 9.63 µM
SNB-75 CNS
  GI50: 30.1 µM
  TGI: > 100 µM
U251 CNS
  GI50: 17.9 µM
  TGI: 44.5 µM
UACC-257 melanoma
  GI50: 18.7 µM
  TGI: 72.4 µM

## Cc1cnc(SCCN2CCN(C)CC2)nc1-c1cc2ccccc2s1
HOP-62 NSCLC
  TGI: 4.81 µM
M14 melanoma
  TGI: 27.4 µM
SK-MEL-2 melanoma
  TGI: 30.9 µM
SN12C renal
  TGI: 21.3 µM
SNB-75 CNS
  TGI: 24.6 µM
U251 CNS
  TGI: 21.7 µM
UACC-257 melanoma
  TGI: 23.5 µM

## O=C1CCC2(c3ccccc3)Nc3ccc(Cl)cc3N12 (configuration not stated)
HOP-62 NSCLC
  TGI: > 100 µM
M14 melanoma
  TGI: > 100 µM
SK-MEL-2 melanoma
  TGI: > 100 µM
SN12C renal
  TGI: > 100 µM
SNB-75 CNS
  TGI: > 100 µM
U251 CNS
  TGI: > 100 µM
UACC-257 melanoma
  TGI: > 100 µM

## CCCCCCCCCCCCCCNCC(OCC)OCC
HOP-62 NSCLC
  TGI: 31.6 µM
M14 melanoma
  TGI: 27.5 µM
SK-MEL-2 melanoma
  TGI: 28.6 µM
SN12C renal
  TGI: 27.9 µM
SNB-75 CNS
  TGI: 23 µM
U251 CNS
  TGI: 30.5 µM
UACC-257 melanoma
  TGI: 31.2 µM

## COc1ccc(C#CC2=C(c3cc(OC)c(OC)c(OC)c3)C(=O)OC2)cc1
M14 melanoma
  GI50: > 50 µM
  TGI: > 50 µM
MDA-MB-231 breast
  GI50: 32 µM
  TGI: > 50 µM
MDA-MB-435
  GI50: 1.49 µM
  TGI: 7.82 µM
PC-3 prostate
  GI50: 2.95 µM
  TGI: > 50 µM
SK-MEL-2 melanoma
  GI50: 42.5 µM
  TGI: > 50 µM
SNB-75 CNS
  GI50: 1.33 µM
  TGI: > 50 µM
U251 CNS
  GI50: 1.64 µM
  TGI: 6.74 µM
UACC-257 melanoma
  GI50: 13 µM
  TGI: > 50 µM

## C/C=C1\CCC2c3[nH]c4ccccc4c3CCN2C1 (configuration not stated)
HOP-62 NSCLC
  TGI: > 100 µM
M14 melanoma
  TGI: 75.8 µM
SK-MEL-2 melanoma
  TGI: > 100 µM
SN12C renal
  TGI: > 100 µM
SNB-75 CNS
  TGI: > 100 µM
U251 CNS
  TGI: > 100 µM

## CCCCN1CCN(c2ccc3nc(-c4ccc5nc(-c6ccc(OCC)c(OCC)c6)[nH]c5c4)[nH]c3c2)CC1
M14 melanoma
  GI50: 0.314 µM
  TGI: 1.55 µM
MDA-MB-231 breast
  GI50: 1.69 µM
  TGI: 3.28 µM
MDA-MB-435
  GI50: 1.09 µM
  TGI: 2.39 µM
PC-3 prostate
  GI50: 1.08 µM
  TGI: 2.44 µM
SNB-75 CNS
  GI50: 0.65 µM
  TGI: 2.01 µM
U251 CNS
  GI50: 1.28 µM
  TGI: 2.69 µM
UACC-257 melanoma
  GI50: 1.21 µM
  TGI: 10.5 µM

## O=C(NC(=O)c1cc2cc(Br)cc(Br)c2oc1=O)Oc1ccccc1
HOP-62 NSCLC
  TGI: > 100 µM
M14 melanoma
  TGI: > 100 µM
SN12C renal
  TGI: > 100 µM
SNB-75 CNS
  TGI: 33.6 µM
U251 CNS
  TGI: > 100 µM
UACC-257 melanoma
  TGI: > 100 µM

## CC12CCC(O)CC1=CCC1C2CCC2(C)C(c3cccnc3)=CCC12 (configuration not stated)
HOP-62 NSCLC
  GI50: > 100 µM
  TGI: > 100 µM
M14 melanoma
  GI50: > 100 µM
  TGI: > 100 µM
MDA-MB-231 breast
  GI50: > 100 µM
  TGI: > 100 µM
MDA-MB-435
  GI50: 83.7 µM
  TGI: > 100 µM
PC-3 prostate
  GI50: > 100 µM
  TGI: > 100 µM
SK-MEL-2 melanoma
  GI50: > 100 µM
  TGI: > 100 µM
SN12C renal
  GI50: > 100 µM
  TGI: > 100 µM
SNB-75 CNS
  GI50: 48.5 µM
  TGI: > 100 µM
U251 CNS
  GI50: 70.1 µM
  TGI: > 100 µM

## Cc1ccc(C(=O)N=Nc2c(O)[nH]c3ccc(Cl)cc23)cc1
M14 melanoma
  GI50: 22.7 µM
  TGI: > 50 µM
MDA-MB-231 breast
  GI50: 18.7 µM
  TGI: > 50 µM
MDA-MB-435
  GI50: 13 µM
  TGI: 40.6 µM
PC-3 prostate
  GI50: 25.9 µM
  TGI: > 50 µM
SK-MEL-2 melanoma
  GI50: > 50 µM
  TGI: > 50 µM
SN12C renal
  GI50: 8.7 µM
  TGI: 17.8 µM
SNB-75 CNS
  GI50: 16.6 µM
  TGI: > 50 µM
U251 CNS
  GI50: 21.5 µM
  TGI: > 50 µM
UACC-257 melanoma
  GI50: > 50 µM
  TGI: > 50 µM

## COc1ccc(-c2nnc(Nc3nc(O)c(C4=c5cc(F)ccc5=NC4=O)s3)o2)cc1
HOP-62 NSCLC
  GI50: 18.2 µM
  TGI: 43.7 µM
MDA-MB-231 breast
  GI50: 19.8 µM
  TGI: 52.2 µM
MDA-MB-435
  GI50: 36.2 µM
  TGI: > 100 µM
PC-3 prostate
  GI50: 32.4 µM
  TGI: > 100 µM
SK-MEL-2 melanoma
  GI50: 33.7 µM
  TGI: > 100 µM
SN12C renal
  GI50: 47 µM
  TGI: > 100 µM
U251 CNS
  GI50: 25.3 µM
  TGI: 61.2 µM
UACC-257 melanoma
  GI50: > 100 µM
  TGI: > 100 µM

## CC/C(CC(=O)CCC(=O)Nc1ccc(C)c(C)c1)=N\NC(=O)C(N)=O
HOP-62 NSCLC
  TGI: > 100 µM
M14 melanoma
  TGI: > 100 µM
SN12C renal
  TGI: > 100 µM
SNB-75 CNS
  TGI: > 100 µM
U251 CNS
  TGI: > 100 µM
UACC-257 melanoma
  TGI: > 100 µM

## Nc1nc(-c2cc(-c3cccc4ccccc34)nc(N)n2)cc(-c2cccc3ccccc23)n1
HOP-62 NSCLC
  TGI: > 100 µM
M14 melanoma
  TGI: > 100 µM
MDA-MB-231 breast
  TGI: > 100 µM
MDA-MB-435
  TGI: > 100 µM
PC-3 prostate
  TGI: > 100 µM
SK-MEL-2 melanoma
  TGI: > 100 µM
SN12C renal
  TGI: > 100 µM
U251 CNS
  TGI: > 100 µM
UACC-257 melanoma
  TGI: > 100 µM
